According to patent publication US20240158754A1, “REDUCING HIGH MANNOSE GLYCAN PROTEIN EXPRESSION USING GUANOSINE 5'-MONOPHOSPHATE” (MERCK SHARP & DOHME LLC, priority 2021, published 2024):
“Also recorded” adds a separate entry of the source.

How the values were obtained:
Format in all cases: cell-based, Chinese hamster
[1] = system: recombinant CHO cell lines expressing monoclonal antibodies (mAb A, mAb B, or mAb C); test: 10-day fed-batch assay with GMP (Example 2), statements for all cell lines
Procedure: (§1) Cells were cultured in Merck proprietary chemically defined media in increasing volume to obtain sufficient number of cells for inoculation. For cell lines expressing mAb A and mAb B, cells were seeded at 0.5×10^6 cells per mL into Merck proprietary chemically defined production medium in two 1 L Erlenmeyer flasks at a final volume of 250 mL in each flask. For cell line expressing mAb C, cells were seeded at 1.0×10^6 cells per mL into production medium in two 1 L Erlenmeyer flasks at a final volume of 250 mL in each flask. Cells were incubated at 36.5° C., with agitation at 100 rpm, in presence of 5% CO2, and humidity ≥70%. Merck proprietary chemically defined nutrient feed media were added to all the cultures on day 3, day 6, and day 8. On Day 6, cells from both 1 L flasks for each cell line were pooled and then aliquoted in 125 mL Erlenmeyer flasks with 30 mL working volume, respectively. A 200 mM stock solution of GMP was prepared by adding Guanosine 5′-monophosphate disodium salt hydrate (Sigma Aldrich, St. Louis, MO) in purified water. After the cells were aliquoted in separate 125 mL test flasks on day 6, GMP was added to the cultures at final concentration of 1 mM or 10 mM. No change in pH and osmolality was observed as a result of the GMP addition. A control condition with no added GMP was also created for each cell line. All conditions were run with two replicates. All cultures were harvested on day 10.
(§2) Cell culture parameters were analyzed on day 0, 3, 6, 8 and 10, and the corresponding spent medium supernatants were evaluated for antibody titer, charge variants, and glycan analysis on day 10 to assess the effect of GMP on cell growth, viability, titer, and glycan profile of the recombinant antibodies. Cell density and viability were measured using the trypan blue exclusion method with Cedex Bio Analyzer (Roche Diagnostics GmbH, Mannheim, Germany). Culture pH was measured using ABL80 Blood/Gas Analyzer (Radiometer, Denmark). Cell culture metabolites were measured using RX Imola (Randox Laboratories Ltd. Crumlin, UK) and osmolality was measured using a micro-Osmometer 2020 (Advanced Instruments, Norwood, MA).
(§3) Antibody titer was analyzed using a mAb-specific reverse-phase high-performance liquid chromatography (HPLC) or analytical Protein A HPLC method. Multiple product quality attributes were analyzed on harvested cell-culture fluid (HCCF) after a Protein A chromatography step. Analysis of HMW species was performed by size-exclusion chromatography, analysis of charge variants was performed by ion exchange chromatography, and analysis of N-glycan was performed by ultra-performance liquid chromatography (UPLC) with 2-aminobenzamide (2-AB) labeling.

[2] = system: recombinant CHO cell lines expressing monoclonal antibodies (mAb A, mAb B, or mAb C); test: 10-day fed-batch assay of eighteen components (Example 1), statements for all cell lines; details: among the 18 tested components
Procedure: Experiment was executed by dividing into 6-blocks. In each experiment block, 3 unique test components were assessed and control conditions with no added test component were included for all three cell lines. Cells were cultured in Merck proprietary chemically defined media in increasing volume to obtain sufficient number of cells for inoculation. For cell lines expressing mAb A and mAb B, cells were seeded at 0.5×10^6 cells per mL into Merck proprietary chemically defined production medium in two 1 L Erlenmeyer flasks at a final volume of 250 mL in each flask. […]
as §2, with “titer, charge variants and glycan” for “titer, charge variants, and glycan”, “effect of added components on cell” for “effect of GMP on cell”, “viability, titer, aggregation, charge variants and glycan” for “viability, titer, and glycan”, “Norwood, MA). […]” for “Norwood, MA).”

[3] = system: recombinant CHO cell line expressing mAb A; test: 10-day fed-batch assay with GMP (Example 2)
Procedure: as §1, §2, §3

[4] = system: recombinant CHO cell line expressing mAb B; test: 10-day fed-batch assay with GMP (Example 2)
Procedure: as §1, §2, §3

[5] = system: recombinant CHO cell line expressing mAb C; test: 10-day fed-batch assay with GMP (Example 2)
Procedure: as §1, §2, §3

[6] = system: recombinant CHO cell line expressing mAb A; test: 10-day fed-batch assay of eighteen components (Example 1); details: for Relative IVCC (% to Control): added day 6, harvest day 10; for Relative IVCC (% to Control) / Relative Titer (% to Control) / Relative Viability (% to Control): mAb A cell line
Procedure: (§4) Experiment was executed by dividing into 6-blocks. In each experiment block, 3 unique test components were assessed and control conditions with no added test component were included for all three cell lines. Cells were cultured in Merck proprietary chemically defined media in increasing volume to obtain sufficient number of cells for inoculation. […] Merck proprietary chemically defined nutrient feed media were added to all the cultures on day 3, day 6, and day 8. On Day 6, cells from both 1 L flasks for each cell line were pooled and then aliquoted in 125 mL Erlenmeyer flasks with 30 mL working volume, respectively. Stock solutions for each of the tested component were prepared as defined in Table 1 below, and all components were ordered from Sigma Aldrich (St. Louis, MO). Component 6 is GMP. All solutions were prepared in purified water. For each cell line, components were added to the cultures at final concentration at a lower and higher concentrations as per Table 1, respectively, on day 6 of the fed-batch culture. […] A control condition with no added test component was also created for each cell line. All conditions were run with two replicates. All cultures were harvested on day 10.
(§5) Cell culture parameters were analyzed on day 0, 3, 6, 8 and 10, and the corresponding spent medium supernatants were evaluated for antibody titer, charge variants and glycan analysis on day 10 to assess the effect of added components on cell growth, viability, titer, aggregation, charge variants and glycan profile of the recombinant antibodies. Cell density and viability were measured using the trypan blue exclusion method with Cedex Bio Analyzer (Roche Diagnostics GmbH, Mannheim, Germany). Culture pH was measured using ABL80 Blood/Gas Analyzer (Radiometer, Denmark).
as §3
(§6) Data generated from all 6 blocks for all tested components (excluding component 9 and 12) were transformed using a dimensionless number, which is termed as Concentration Impact Factor, and abbreviated as Cf. Cf provides a score value for impact of change in component's concentration on desired response when tested at different concentrations. The equation used to transform data to calculate Cf is described below as equation 1. The first part of the equation represents a directional vector, which determines whether increasing the component concentration from a lower value to a higher value results in a positive or negative response for the measure attribute. The second part of the equation then calculates the magnitude of that change as the concentration changes from low to high.
(§7) wherein, • Cf. Concentration impact factor (dimensionless number) • H: Response for a measured attribute when component is added at a higher concentration • L: Response for a measured attribute when component is added at a lower concentration • C: Response for a measured attribute […] • hc: high concentration (mM) of the component added • lc: low concentration (mM) of the component added

[7] = system: recombinant CHO cell line expressing mAb B; test: as above
Procedure: as §4, §5, §3, §6, §7

[8] = system: recombinant CHO cell line expressing mAb C; test: as above; details: mAb C cell line (Table 4, untitled)
Procedure: as §4, §5, §3, §6, §7

[9] = Higher Concentration per Table 1
[10] = Lower Concentration per Table 1

In the case of `Nc1nc2c(ncn2[C@@H]2O[C@H](COP(=O)(O)O)[C@@H](O)[C@H]2O)c(=O)[nH]1` [Component 6, Guanosine 5′-monophosphate], the “higher order mannose structures” value [1] is reported as “slight decrease”, the “impact on cell culture parameters” value ([1]; GMP 1 mM) is reported as “no impact” and the “HMG content on the recombinant antibodies” value ([1]; GMP 1 mM and 10 mM) is reported as “dose dependent decrease”. For the same compound, the high mannose ([1]; GMP 10 mM, all cell lines) was “large decreases”, the “Man 5 content” value ([1]; mAb A, mAb B, and mAb C, listed as GMP) was “major high mannose species downregulated; also recorded: dose dependent decrease” and the “cell culture performance parameters (IVCC, final viability, titer, ammonia, lactate)” value ([1]; three CHO cell lines) was “did not significantly affect”. For the same compound, the “overall HMG content, in particular Man 5 species, of the monoclonal antibodies produced” value [2] was “reduced”, the “Cumulative Titer” value ([3]; GMP 1 mM) was 158 mg/L and the Final viability ([3]; GMP 1 mM) was 85.5%. The IVCC ([3]; GMP 1 mM) was 46.4 10^6 cells · Day/mL, the high mannose glycans ([3]; GMP 1 mM) was “slight decrease” and the “Cumulative Titer” value ([3]; GMP 10 mM) was 167 mg/L. The Final viability ([3]; GMP 10 mM) was 77.4%, the IVCC ([3]; GMP 10 mM) was 44.3 10^6 cells · Day/mL and the cell growth ([3]; GMP 10 mM) was “slight decrease”. For the same compound, the “Man 5 (HMG level, value relative to control)” value ([3]; GMP final concentration 1 mM) was 0.97, the “Total HMG (value relative to control)” value ([3]; GMP final concentration 1 mM) was 0.96 and the “Man 5 (HMG level, value relative to control)” value ([3]; GMP final concentration 10 mM) was 0.76. For the same compound, the “Total HMG (value relative to control)” value ([3]; GMP final concentration 10 mM) was 0.76, the “Cumulative Titer” value ([4]; GMP 1 mM) was 314 mg/L and the Final viability ([4]; GMP 1 mM) was 86.9%. The IVCC ([4]; GMP 1 mM) was 52.7 10^6 cells · Day/mL, the “Cumulative Titer” value ([4]; GMP 10 mM) was 296 mg/L and the Final viability ([4]; GMP 10 mM) was 82.1%. For the same compound, the IVCC ([4]; GMP 10 mM) was 49.7 10^6 cells · Day/mL, the cell growth ([4]; GMP 10 mM) was “slight decrease” and the “Man 5 (HMG level, value relative to control)” value ([4]; GMP final concentration 1 mM) was 1.02. The “Total HMG (value relative to control)” value ([4]; GMP final concentration 1 mM) was 1.01, the “Man 5 (HMG level, value relative to control)” value ([4]; GMP final concentration 10 mM) was 0.91 and the “Total HMG (value relative to control)” value ([4]; GMP final concentration 10 mM) was 0.90. The “Cumulative Titer” value ([5]; GMP 1 mM) was 690 mg/L, the Final viability ([5]; GMP 1 mM) was 98.5% and the IVCC ([5]; GMP 1 mM) was 86.5 10^6 cells · Day/mL. The high mannose glycans ([5]; GMP 1 mM) was “slight decrease”, the “Cumulative Titer” value ([5]; GMP 10 mM) was 701 mg/L and the Final viability ([5]; GMP 10 mM) was 86.3%. For the same compound, the IVCC ([5]; GMP 10 mM) was 71.1 10^6 cells · Day/mL, the cell growth ([5]; GMP 10 mM) was “considerable decrease” and the “Man 5 (HMG level, value relative to control)” value ([5]; GMP final concentration 1 mM) was 0.98. For the same compound, the “Man 5 (HMG level, value relative to control)” value ([5]; GMP final concentration 10 mM) was 0.68, the “Relative IVCC (% to Control)” value ([6]; Higher Concentration per Table 1 (GMP 10 mM)) was 95.08 % to Control and the “Relative Titer (% to Control)” value [6, 9] was 96.14 % to Control. For the same compound, the “Relative Viability (% to Control)” value [6, 9] was 91.8 % to Control, the “Relative IVCC (% to Control)” value ([6]; Lower Concentration per Table 1 (GMP 1 mM)) was 100.61 % to Control and the “Relative Titer (% to Control)” value [6, 10] was 101.88 % to Control. For the same compound, the “Relative Viability (% to Control)” value [6, 10] was 96.75 % to Control, the “dose dependent change in Man 5 peak (Cf)” value ([6]; mAb A, lower vs higher concentration) was “largest dose dependent decrease in Man 5 peak” and the “Relative IVCC (% to Control)” value [7, 9] was 90.77 % to Control. For the same compound, the “Relative Titer (% to Control)” value [7, 9] was 94.86 % to Control, the “Relative Viability (% to Control)” value [7, 9] was 95.28 % to Control and the “Relative IVCC (% to Control)” value [7, 10] was 96.14 % to Control. The “Relative Titer (% to Control)” value [7, 10] was 100.81 % to Control, the “Relative Viability (% to Control)” value [7, 10] was 100.77 % to Control and the “Relative IVCC (% to Control)” value [8, 9] was 79.88 % to Control. The “Relative Titer (% to Control)” value [8, 9] was 103.8 % to Control, the “Relative Viability (% to Control)” value [8, 9] was 87.81 % to Control and the “Relative IVCC (% to Control)” value [8, 10] was 97.24 % to Control. The “Relative Titer (% to Control)” value [8, 10] was 102.19 % to Control and the “Relative Viability (% to Control)” value [8, 10] was 99.25 % to Control.
